“And” between values parts separate entries of the source, which are not always exact repeats. Identical values can stand only once.
Key:
immature female rabbits = experiment: anti-estrogenic activity in vivo (uterine weight); set-up: species or system rabbit
Description: Steril. 52: 1055-1060 (1989). […] The weight of uteri from untreated immature rabbits was increased from 246±87 (S.E.) mg with no estradiol to 1402±104 mg with estradiol alone. Concurrent treatment of rabbits with estradiol and 10 mg/day of 17α-acetoxy-11β-(4-(N-piperidino)phenyl)-19-norpregna-4,9-diene-3,20-dione reduced the uterine weights to 998±98 mg. Likewise 17α-acetoxy-11β-(4-N-pyrrolidino)phenyl)-19-norpregna-4,9-diene-3,20-dione at 10 mg/day reduced the uterine weight to 919±115 mg, and 17α-acetoxy-11β-(1-methyl-5-indolyl)-19-norpregna-4,9-diene-3,20-dione reduced uterine weight to 956±115 mg at the same dose.

Human T-47D breast cells [1] = experiment: T-47D cell proliferation, antagonist format (inhibition of 0.15 nM R5020-mediated proliferation); type: cell-based; conditions: T47D; for EC50: inhibition of 0.15 nM R5020-mediated proliferation, N.D. not detected; for Emax: maximum % inhibition, 0.15 nM R5020, read-out: Cell Proliferation Antagonist maximum % Inhib.
Description: (§1) Human T-47D breast cells grown in nutrient media were incubated with the standard progestin R5020 alone or with R5020 plus test compound and then assessed by standard procedures for proliferation using incorporation of [^3 H]-thymidine as the measurement. […] The maximum % inhibition (a measure of the efficacy of the compounds) is also given. In the agonist format of this assay the compounds were tested at concentrations ranging from 0.01 to 10 nM and the maximum % stimulation at any dose is listed in Table 2. […] However, the presence of a very polar hydroxyl group in the 17α-position greatly diminishes antiprogestational activity and this holds even when the OH is separated from the 17-carbon atom by a methylene group.

[2] = tested on: Ishikawa human endometrial adenocarcinoma cell line; experiment: anti-estrogenic activity in Ishikawa cells (block of estrogen-stimulated alkaline phosphates activity); type: cell-based; conditions: for anti-estrogenic activity in the Ishikawa cell assay: in words, concentration not given
progestin receptor (hPR) = experiment: progestin receptor binding; conditions: cytosol from human T-47D breast cells; [3H]-R5020; read-out: Receptor Binding Affinity hPR IC50
Description: However, the receptors were of human origin and a different radioligand was used. Thus, for progestin receptor binding the receptor was obtained in cytosol from human T-47D breast cells and [^3 H]-R5020 was used as the radioligand. Data are expressed as IC50 values, i.e., the concentration of compound that inhibits the radioligand binding by 50%.

rabbits [3] = experiment: McGinty test (agonist, test compound alone); type: in vivo, rabbit
Description: (§2) Progestational activity and antiprogestational activity were determined in rabbits by means of the McGinty test (test compound alone, procedure of McGinty et al., Endocrinology, 24:829-832 (1939)) or anti-McGinty test (test compound plus progesterone, procedure of Tamara et al., Jpn. J. Fertil. Steril. 24:48-81 (1979)). Results were scored according to McPhail (McPhail, J. Physiol., 83:146 (1934)).

Human T-47D breast cells [4] = experiment: T-47D cell proliferation, agonist format; type: cell-based; conditions: T47D, 0.01 to 10 nM, maximum at any dose, read-out: Cell Proliferation Agonist maximum % Stim.
Description: as §1

immature male rats = experiment: antiglucocorticoid activity in vivo (thymus weight); set-up: species or system rat
Description: The ability of the compounds to block the effects of dexamethasone (6 μg per day for 7 days) on thymus weight of immature male rats was assessed.

[5] = tested on: immature New Zealand white rabbits; experiment: anti-Clauberg assay for oral antiprogestational activity; type: in vivo, rabbit; conditions: for ED50, anti-Clauberg assay: 5 days; for ED50, anti-Clauberg assay / effectiveness in inhibiting the endometrial response: with progesterone SC
Description: In this assay immature New Zealand white rabbits were primed with estrogen by treatment with estradiol for six days. They were then given progesterone subcutaneously (SC) and the test compound (orally) for 5 days. On the day following the treatment, the uteri were excised and examined histologically. The endometrial response was graded by the method of McPhail and the % inhibition was determined at each dose. Statistical analysis provides for an ED50 value.

rabbits [6] = experiment: anti-McGinty test (antagonist, test compound plus progesterone); type: in vivo, rabbit
Description: as §2

androgen receptor = target: T1, androgen receptor (Rattus norvegicus, UniProt P15207); experiment: androgen receptor binding
T1 construct: using the cytosolic receptor from rat central prostate; from tissue
T1 sequence (P15207 1-902): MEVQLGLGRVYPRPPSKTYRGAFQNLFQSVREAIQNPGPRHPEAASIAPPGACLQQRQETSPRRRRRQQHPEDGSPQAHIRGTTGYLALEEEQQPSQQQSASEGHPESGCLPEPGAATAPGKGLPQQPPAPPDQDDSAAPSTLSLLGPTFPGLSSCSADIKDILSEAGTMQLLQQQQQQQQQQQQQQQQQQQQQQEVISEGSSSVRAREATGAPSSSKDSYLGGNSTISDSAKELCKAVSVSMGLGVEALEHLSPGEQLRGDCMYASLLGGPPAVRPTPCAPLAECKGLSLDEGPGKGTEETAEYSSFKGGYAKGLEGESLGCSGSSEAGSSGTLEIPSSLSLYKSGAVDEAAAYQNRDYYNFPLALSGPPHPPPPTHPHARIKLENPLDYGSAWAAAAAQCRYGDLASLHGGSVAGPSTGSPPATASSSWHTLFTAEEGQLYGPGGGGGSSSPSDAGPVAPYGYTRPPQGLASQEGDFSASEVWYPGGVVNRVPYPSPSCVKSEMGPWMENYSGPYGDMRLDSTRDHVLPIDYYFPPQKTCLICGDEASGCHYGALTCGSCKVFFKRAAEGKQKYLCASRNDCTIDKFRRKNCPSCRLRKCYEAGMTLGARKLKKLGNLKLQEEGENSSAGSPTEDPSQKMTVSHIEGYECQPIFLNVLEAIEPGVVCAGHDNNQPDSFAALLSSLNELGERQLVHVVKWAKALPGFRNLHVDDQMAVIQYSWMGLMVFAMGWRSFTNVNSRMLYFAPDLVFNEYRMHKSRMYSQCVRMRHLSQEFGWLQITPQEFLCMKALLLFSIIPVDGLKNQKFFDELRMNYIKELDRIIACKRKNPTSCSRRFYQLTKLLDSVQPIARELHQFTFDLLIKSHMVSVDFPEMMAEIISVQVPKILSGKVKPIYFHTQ

[7] = test compound 10 mg/day oral + 5 μg estradiol per day

Structure (SMILES): CC(=O)O[C@]1(C(C)=O)CC[C@H]2[C@@H]3CCC4=CC(=O)CCC4=C3[C@@H](c3ccc4c(ccn4C)c3)C[C@@]21C [I 1-methylindol-5-yl O H --O--CO--CH3 H, 17α-Acetoxy-11β-(1-methylindol-5-yl)-19-norpregna-4,9-diene-3,20-dione]
- uterine weight (immature female rabbits; [7]): 956 ± 115 mg
- EC50 (Human T-47D breast cells [1]): 0.7 nM
- Emax (Human T-47D breast cells [1]): 110%
- anti-estrogenic activity in the Ishikawa cell assay [2]: inactive
- IC50 (progestin receptor (hPR)): 2.4 nM
- McPhail Index, McGinty Assay (Agonist) (rabbits [3]; dose 0.3 micrograms): 0 +/- 0
- McPhail Index, McGinty Assay (Agonist) (rabbits [3]; dose 3 micrograms): 0 +/- 0
- McPhail Index, McGinty Assay (Agonist) (rabbits [3]; dose 30 micrograms): 0 +/- 0
- Emax (Human T-47D breast cells [4]): 17%
- thymus weight (immature male rats; 6 μg dexamethasone + 1,000 μg test compound per day, 7 days): 105 ± 8 mg
- antiglucocorticoid activity (immature male rats; 1000 μg per day, in words): little or no antiglucocorticoid activity in vivo
- glucocorticoid activity (immature male rats; compound given alone, in words): Neither did it show significantglucocorticoid activity
- thymus weight (immature male rats; test compound given alone): 270 ± 13 mg

Structure (SMILES): CC(=O)O[C@]1(C(C)=O)CC[C@H]2[C@@H]3CCC4=CC(=O)CCC4=C3[C@@H](c3ccc(N4CCCCC4)cc3)C[C@@]21C [I 4-(N-piperidino) H O H --O--CO--CH3 H, 17α-Acetoxy-11β-[4-(N-piperidino)phenyl]-19-norpregna-4,9-diene-3,20-dione]
- uterine weight (immature female rabbits; [7]): 998 ± 98 mg
- EC50 (Human T-47D breast cells [1]): 0.2 nM
- Emax (Human T-47D breast cells [1]): 117%
- anti-estrogenic activity in the Ishikawa assay ([2]; concentrations up to 10^-6 M): inactive
- IC50 (progestin receptor (hPR)): 1.2 nM
- McPhail Index, McGinty Assay (Agonist) (rabbits [3]; dose 0.3 micrograms): 0.1 +/- 0.1
- McPhail Index, McGinty Assay (Agonist) (rabbits [3]; dose 3 micrograms): 0 +/- 0
- McPhail Index, McGinty Assay (Agonist) (rabbits [3]; dose 30 micrograms): 0.2 +/- 0.1
- Emax (Human T-47D breast cells [4]): 0%
- ED50, anti-Clauberg assay [5]: 0.9 mg/day
- potency relative to mifepristone ([5]; more potent than mifepristone): about 5 fold
- effectiveness in inhibiting the endometrial response [5]: 100%

Structure (SMILES): CC(=O)O[C@]1(C(C)=O)CC[C@H]2[C@@H]3CCC4=CC(=O)CCC4=C3[C@@H](c3ccc(N4CCCC4)cc3)C[C@@]21C [I 4-(N-pyrrolidino) H O H --O--CO--CH3 H, 17α-Acetoxy-11β-[4-(N-pyrrolidino)phenyl]-19-norpregna-4,9-diene-3-20-dione]
- uterine weight (immature female rabbits; [7]): 919 ± 115 mg
- EC50 (Human T-47D breast cells [1]): 0.4 nM
- Emax (Human T-47D breast cells [1]): 108%
- anti-estrogenic activity in the Ishikawa cell assay [2]: inactive
- IC50 (progestin receptor (hPR)): 0.8 nM
- McPhail Index, McGinty Assay (Agonist) (rabbits [3]; dose 0.3 micrograms): 0 +/- 0
- McPhail Index, McGinty Assay (Agonist) (rabbits [3]; dose 3 micrograms): 0 +/- 0
- McPhail Index, McGinty Assay (Agonist) (rabbits [3]; dose 30 micrograms): 0 +/- 0
- Emax (Human T-47D breast cells [4]): 1%

Structure (SMILES): COC[C@]1(C(C)=O)CC[C@H]2[C@@H]3CCC4=CC(=O)CCC4=C3[C@@H](c3ccc(N(C)C)cc3)C[C@@]21C [I 4-Me2 N H O H --CH2 OCH3 H, 11β-(4-(N,N-dimethylamino)phenyl)-17α-methoxymethyl-19-norpregna-4,9-diene-3,20-dione]
- McPhail Index, McGinty Assay (Antagonist) (rabbits [6]; rabbit, in vivo): 3.2 +/- 0.1 and 1.7 +/- 0.8 and 1.7 +/- 0.3
- EC50 (Human T-47D breast cells [1]): 0.3 nM
- Emax (Human T-47D breast cells [1]): 106%
- IC50 (progestin receptor (hPR)): 3.2 nM
- McPhail Index, McGinty Assay (Agonist) (rabbits [3]; dose 0.3 micrograms): 1.3 +/- 0.5
- McPhail Index, McGinty Assay (Agonist) (rabbits [3]; dose 3 micrograms): 1.8 +/- 0.6
- McPhail Index, McGinty Assay (Agonist) (rabbits [3]; dose 30 micrograms): 1.3 +/- 0.8
- Emax (Human T-47D breast cells [4]): 12%

Structure (SMILES): CC(=O)[C@@]1(O)CC[C@H]2[C@@H]3CCC4=CC(=O)CCC4=C3[C@@H](c3ccc(N(C)C)cc3)C[C@@]21C [I 4-Me2 N H O H --OH H]
- McPhail Index, McGinty Assay (Antagonist) (rabbits [6]; dose 0.3 micrograms, plus progesterone): 2.8 +/- 0
- McPhail Index, McGinty Assay (Antagonist) (rabbits [6]; dose 3 micrograms, plus progesterone): 2.4 +/- 0.4
- McPhail Index, McGinty Assay (Antagonist) (rabbits [6]; dose 30 micrograms, plus progesterone): 2.1 +/- 0.4
- Emax (Human T-47D breast cells [1]): 29%
- IC50 (progestin receptor (hPR)): 26 nM
- McPhail Index, McGinty Assay (Agonist) (rabbits [3]; dose 0.3 micrograms): 0 +/- 0
- McPhail Index, McGinty Assay (Agonist) (rabbits [3]; dose 3 micrograms): 0 +/- 0
- McPhail Index, McGinty Assay (Agonist) (rabbits [3]; dose 30 micrograms): 0 +/- 0
- Emax (Human T-47D breast cells [4]): 4%

Structure (SMILES): CC(=O)OC[C@]1(C(C)=O)CC[C@H]2[C@@H]3CCC4=CC(=O)CCC4=C3[C@@H](c3ccc(N(C)C)cc3)C[C@@]21C [I 4-Me2 N H O H CH2 --O--CO--CH3 H]
- McPhail Index, McGinty Assay (Antagonist) (rabbits [6]; rabbit, in vivo): 3.4 +/- 0.1 and 2.6 +/- 0.2 and 2.0 +/- 0.2
- EC50 (Human T-47D breast cells [1]): 8.9 nM
- Emax (Human T-47D breast cells [1]): 92%
- IC50 (progestin receptor (hPR)): 10.6 nM
- McPhail Index, McGinty Assay (Agonist) (rabbits [3]; dose 0.3 micrograms): 0 +/- 0
- McPhail Index, McGinty Assay (Agonist) (rabbits [3]; dose 3 micrograms): 0.6 +/- 0.2
- McPhail Index, McGinty Assay (Agonist) (rabbits [3]; dose 30 micrograms): 1.0 +/- 0.1
- Emax (Human T-47D breast cells [4]): 20%

Structure (SMILES): CN(C)c1ccc([C@H]2C[C@@]3(C)[C@@H](CC[C@@]34OC(=O)CCC4=O)[C@@H]3CCC4=CC(=O)CCC4=C32)cc1 [II 4-Me2 N H O H -- H H H, 11β-[4-(N,N-dimethylamino)phenyl]-3,20-dioxo-17α-hydroxy-19,21-dinorchola-4,9-dien-24-oic acid δ-lactone]
- antiprogestational activity, anti-McGinty test (rabbits [6]; in words): potent antiprogestational activity
- IC50 (androgen receptor; cytosolic receptor from rat central prostate, [3H]-5α-dihydrotestosterone): 90 nM
- androgen receptor affinity (androgen receptor; in words): very low affinity
- IC50 (progestin receptor (hPR)): 11.9 nM
- McPhail Index, McGinty Assay (Agonist) (rabbits [3]; dose 0.3 micrograms): 0 +/- 0
- McPhail Index, McGinty Assay (Agonist) (rabbits [3]; dose 3 micrograms): 0 +/- 0
- McPhail Index, McGinty Assay (Agonist) (rabbits [3]; dose 30 micrograms): 0
- progestational activity, McGinty test (rabbits [3]; in words): no evidence of progestational activity

Structure (SMILES): C[C@@H]1C[C@H]2[C@@H]3CCC4=CC(=O)C=C[C@]4(C)[C@@]3(F)[C@@H](O)C[C@]2(C)[C@@]1(O)C(=O)CO [dexamethasone, reference compound]
- thymus weight (immature male rats; 6 μg dexamethasone alone per day, 7 days): 65 ± 8 mg

Structure (SMILES): C[C@]12CC[C@@H]3c4ccc(O)cc4CC[C@H]3[C@@H]1CC[C@@H]2O [estradiol, reference compound]
- uterine weight (immature female rabbits; estradiol alone, 5 μg per day): 1402 ± 104 mg

Structure (SMILES): CC#C[C@]1(O)CC[C@H]2[C@@H]3CCC4=CC(=O)CCC4=C3[C@@H](c3ccc(N(C)C)cc3)C[C@@]21C [mifepristone, reference compound]
- ED50, anti-Clauberg assay [5]: 4.14 mg/day
- effectiveness in inhibiting the endometrial response [5]: 67%

Reference: patent publication US6020328A, “20-keto-11β-arylsteroids and their derivatives having agonist or antagonist hormonal properties” (Research Triangle Institute, priority 1998, dated 2000)
